According to PubChem BioAssay AID2060483 (Molecular Pharmacology Branch, DTP, NCI, 2025):

Tested on: K24384-001-R-PDC complex spheroids, viability
Assay: Anticancer human tumor K24384-001-R-PDC patient-derived pancreatic adenocarcinoma cell line growth inhibition [GQUAD]
Conditions: for IC50: curve of first compound; for viability, T/C: stronger effect = lower value; active = viability on the fitted dose curve at most 10% of control; inactive = the rest
In short: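 Tumor cells were grown as complex spheroids with HUVEC endothelial cells and mesenchymal stem cells as stroma. G-quadruplex stabilizers were combined with targeted agents over half-log dilutions from near the clinical Cmax, or from 10 microM.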

[1] = second compound 0.0316 µM, first compound 0.0316 µM
[2] = second compound 0.0316 µM, first compound 0.316 µM
[3] = second compound 0.1 µM, first compound 0.0316 µM
[4] = second compound 0.1 µM, first compound 0.316 µM
[5] = second compound 0.316 µM, first compound 0.0316 µM
[6] = second compound 0.316 µM, first compound 0.316 µM
[7] = second compound 1 µM, first compound 0.0316 µM
[8] = second compound 1 µM, first compound 0.316 µM
[9] = second compound 3.16 µM, first compound 0.0316 µM
[10] = second compound 3.16 µM, first compound 0.316 µM
[11] = second compound 10 µM, first compound 0.0316 µM
[12] = second compound 10 µM, first compound 0.316 µM
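Note: spheroids exposed to compounds for seven days.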

Cn1ncnc1[C@H]1c2n[nH]c(=O)c3cc(F)cc(c23)N[C@@H]1c1ccc(F)cc1 + CN(C)c1ccc(Nc2c3ccc(NC(=O)CCN4CCCC4)cc3nc3cc(NC(=O)CCN4CCCC4)ccc23)cc1
> 0.316 µM: IC50 (second compound 0.0316 µM) | IC50 (second compound 0.1 µM) | IC50 (second compound 0.316 µM) | IC50 (second compound 1 µM) | IC50 (second compound 3.16 µM) | IC50 (second compound 10 µM)
inactive: viability, T/C (second compound 0.0316 µM, first compound 0.000999 µM) 101% | viability, T/C (second compound 0.0316 µM, first compound 0.00316 µM) 82.2% | viability, T/C (second compound 0.0316 µM, first compound 0.00999 µM) 108% | viability, T/C [1] 81.4% | viability, T/C (second compound 0.0316 µM, first compound 0.0999 µM) 80.9% | viability, T/C [2] 86.1% | viability, T/C (second compound 0.1 µM, first compound 0.000999 µM) 82.9% | viability, T/C (second compound 0.1 µM, first compound 0.00316 µM) 125% | viability, T/C (second compound 0.1 µM, first compound 0.00999 µM) 92.2% | viability, T/C [3] 81.2% | viability, T/C (second compound 0.1 µM, first compound 0.0999 µM) 107% | viability, T/C [4] 93% | viability, T/C (second compound 0.316 µM, first compound 0.000999 µM) 85.1% | viability, T/C (second compound 0.316 µM, first compound 0.00316 µM) 89.5% | viability, T/C (second compound 0.316 µM, first compound 0.00999 µM) 105% | viability, T/C [5] 70% | viability, T/C (second compound 0.316 µM, first compound 0.0999 µM) 79.7% | viability, T/C [6] 77.3% | viability, T/C (second compound 1 µM, first compound 0.000999 µM) 90.4% | viability, T/C (second compound 1 µM, first compound 0.00316 µM) 91.2% | viability, T/C (second compound 1 µM, first compound 0.00999 µM) 88% | viability, T/C [7] 87.1% | viability, T/C (second compound 1 µM, first compound 0.0999 µM) 100% | viability, T/C [8] 69.4% | viability, T/C (second compound 3.16 µM, first compound 0.000999 µM) 101% | viability, T/C (second compound 3.16 µM, first compound 0.00316 µM) 85.7% | viability, T/C (second compound 3.16 µM, first compound 0.00999 µM) 77.8% | viability, T/C [9] 92.3% | viability, T/C (second compound 3.16 µM, first compound 0.0999 µM) 91.7% | viability, T/C [10] 65.5% | viability, T/C (second compound 10 µM, first compound 0.000999 µM) 88.2% | viability, T/C (second compound 10 µM, first compound 0.00316 µM) 75.1% | viability, T/C (second compound 10 µM, first compound 0.00999 µM) 82.9% | viability, T/C [11] 118% | viability, T/C (second compound 10 µM, first compound 0.0999 µM) 110% | viability, T/C [12] 54.8%

O=C(c1cc(Cc2n[nH]c(=O)c3ccccc23)ccc1F)N1CCN(C(=O)C2CC2)CC1 + Cc1cnc(CNC(=O)c2c(=O)c3ccc(N4CCCN(C)CC4)nc3n3c2sc2ccccc23)cn1
0.0316 µM: IC50 (second compound 1 µM)
> 10 µM: IC50 (second compound 0.0316 µM) | IC50 (second compound 0.1 µM) | IC50 (second compound 0.316 µM)
< 0.0316 µM: IC50 (second compound 3.16 µM) | IC50 (second compound 10 µM)
inactive: viability, T/C [1] 88.4% | viability, T/C (second compound 0.0316 µM, first compound 0.1 µM) 93.5% | viability, T/C [2] 92.8% | viability, T/C (second compound 0.0316 µM, first compound 1 µM) 113% | viability, T/C (second compound 0.0316 µM, first compound 3.16 µM) 94.8% | viability, T/C (second compound 0.0316 µM, first compound 10 µM) 86.3% | viability, T/C [3] 71.8% | viability, T/C (second compound 0.1 µM, first compound 0.1 µM) 88.7% | viability, T/C [4] 66.9% | viability, T/C (second compound 0.1 µM, first compound 1 µM) 83.6% | viability, T/C (second compound 0.1 µM, first compound 3.16 µM) 70.9% | viability, T/C (second compound 0.1 µM, first compound 10 µM) 80.7% | viability, T/C [5] 62.5% | viability, T/C (second compound 0.316 µM, first compound 0.1 µM) 81.5% | viability, T/C [6] 60% | viability, T/C (second compound 0.316 µM, first compound 1 µM) 88.3% | viability, T/C (second compound 0.316 µM, first compound 3.16 µM) 88.7% | viability, T/C (second compound 0.316 µM, first compound 10 µM) 62.5% | viability, T/C [7] 53% | viability, T/C (second compound 1 µM, first compound 0.1 µM) 48.4% | viability, T/C [8] 49.1% | viability, T/C (second compound 1 µM, first compound 1 µM) 67.4% | viability, T/C (second compound 1 µM, first compound 3.16 µM) 60.2% | viability, T/C (second compound 1 µM, first compound 10 µM) 49.7% | viability, T/C [9] 43.5% | viability, T/C (second compound 3.16 µM, first compound 0.1 µM) 52.8% | viability, T/C [10] 47.6% | viability, T/C (second compound 3.16 µM, first compound 1 µM) 59.5% | viability, T/C (second compound 3.16 µM, first compound 3.16 µM) 38.3% | viability, T/C (second compound 3.16 µM, first compound 10 µM) 50.9% | viability, T/C [11] 40.5% | viability, T/C (second compound 10 µM, first compound 0.1 µM) 24.1% | viability, T/C [12] 43.3% | viability, T/C (second compound 10 µM, first compound 1 µM) 45.6% | viability, T/C (second compound 10 µM, first compound 3.16 µM) 27.9% | viability, T/C (second compound 10 µM, first compound 10 µM) 12.3%
